Patent publication US20140066465A1, “CANCER TREATMENT USING TYROSINE KINASE AND NF-kB INHIBITORS” (The Cleveland Clinic Foundation, priority 2012, published 2014)

Tests used:
[1] = system: H1975 cells; test: PARP cleavage Western blot; assay type: cell-based; details: 5 μM quinacrine, time course
[2] = system: xenograft tumors originating from human renal cell carcinoma; details: mice; cited from earlier work
[3] = system: erlotinib-resistant NSCLC cell lines (A549, H1975, and H1993); test: cells
Description: Erlotinib-resistance NSCLC cell lines A549, H1975, and H1993 were used.
(§1) The cells were plated in 96-well plates at 2500-3000 cells per well, and allowed to attach overnight, with 6 replicates being used for each dose. First, the inventors detected the IC50 with single drug treatment for each cell line.

[4] = system: NF-κB; details: A549 or H1975 reporter cells; pretreated, then interleukin-1 for 6 h
Description: (§2) The reporter cells were then seeded in 96-well plates at 1-2×10^3 per well, allowed to attach overnight, and then treated with drugs and/or IL-1. Cells were then harvested in reporter lysis buffer (Promega) and assayed for luciferase activity using the luciferase assay system (Promega).

[5] = system: NF-κB
Description: as §2, with “For the NF-κB luciferase assay, A549 or H1975 cells were infected with the κB-luciferse construct PLANFκBluc and stably selected with puromycin or hygromycin. The” for “The”, “interleukin-1 for four hours.” for “IL-1.”

[6] = in vivo; cited from earlier work
[7] = target: CYP3A4 (Homo sapiens, UniProt P08684); details: cited from earlier work
Sequence of CYP3A4 (P08684 whole entry): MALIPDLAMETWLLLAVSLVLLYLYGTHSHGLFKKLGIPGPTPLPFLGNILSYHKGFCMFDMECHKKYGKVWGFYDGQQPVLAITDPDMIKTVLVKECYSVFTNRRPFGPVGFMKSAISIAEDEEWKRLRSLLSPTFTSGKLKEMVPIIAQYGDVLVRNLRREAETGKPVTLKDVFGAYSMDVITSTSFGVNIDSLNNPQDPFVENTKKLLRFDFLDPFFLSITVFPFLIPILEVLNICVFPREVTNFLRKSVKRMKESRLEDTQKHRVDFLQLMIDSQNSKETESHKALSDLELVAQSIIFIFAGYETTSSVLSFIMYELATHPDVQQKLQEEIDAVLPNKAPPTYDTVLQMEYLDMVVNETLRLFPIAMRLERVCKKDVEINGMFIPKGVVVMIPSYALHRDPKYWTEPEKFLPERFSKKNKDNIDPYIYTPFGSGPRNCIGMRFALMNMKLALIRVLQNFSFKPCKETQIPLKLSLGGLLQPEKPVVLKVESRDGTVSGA

[8] = system: sensitive cell lines; test: MTT cell survival assay, single drug; assay type: cell-based; details: single drug treatment
Description: as §1

**Q.** Which “Apoptosis by PARP cleavage” value [1] does the source give for `CCN(CC)CCCC(C)Nc1c2ccc(Cl)cc2nc2ccc(OC)cc12` (stereo not shown) [quinacrine] here?
**A.** time-dependent increase of PARP cleavage

**Q.** And the anti-tumor effect [2]?
**A.** anti-tumor effect

**Q.** What about the IC50 [3] of the same molecule?
**A.** 1000 to 2000 nM

**Q.** What about the “IL-1-induced NF-κB-dependent luciferase reporter activity” value [4] of the same molecule?
**A.** suppresses interleukin-1 (IL-1)-induced NF-κB-dependent luciferase reporting activity

**Q.** What about the “NF-κB-dependent luciferase reporter activity” value ([5]; A549 or H1975 reporter cells, 4 h treatment, relative to untreated control) of the same molecule?
**A.** suppresses NF-κB-dependent luciferase reporter activity

**Q.** And the NF-κB activity ([5]; general statement of the inventors)?
**A.** profoundly suppresses NF-κB activity

**Q.** For `C#Cc1cccc(Nc2ncnc3cc(OCCOC)c(OCCOC)cc23)c1` [erlotinib], which half life [6] is on record?
**A.** about 36 hours

**Q.** And the route of clearance [7]?
**A.** cleared predominantly by CYP3A4 methabolism

**Q.** And the IC50 [8]?
**A.** ~20 nM

**Q.** And the IC50 [3]?
**A.** 10000 to 20000 nM
